We go through two compounds from publication PMC8125976, “The Total Solubility of the Co-Solubilized PAHs with Similar Structures Indicated by NMR Chemical Shift” (Molecules, 2021).

A short description of data set [1]: Solubilization of PAHs in Tween 80 micellar solutions (1H-NMR quantification, MSR). The note with it: for MSR (molar solubilization ratio): Tween 80 10-50 mM in D2O, 25 °C; for Synergistic/inhibitory level (RΔMSR), in words: Tween 80. From the text: (§1) Molar solubilization ratio (MSR) is used to evaluate the solubilization potential of a surfactant, which is the molar concentration of the solubilized compound per mole of the surfactant concentration when the surfactant concentration is above CMC [37, 38], expressed by: (1) MSR=S−SCMC/C−CMC where S is the apparent solubility of a solute at the surfactant concentration of C, SCMC is the apparent solubility of the solute at CMC. Usually, the slope of the solubility with respect to the surfactant concentration can be considered to be MSR.
(§2) To compare the mutual effects of solutes in co-solubilization systems, the deviation ratio of MSR (RΔMSR) can be used to evaluate the effects of synergistic (RΔMSR > 0) or inhibitory (RΔMSR < 0), which can be expressed by: (2) RΔMSR%=MSRmixture−MSRsingle/MSRsingle×100% where MSRmixture and MSRsingle are the MSR values of solutes in the binary or ternary co-solubilization system and in the single solubilization system, respectively.
(§3) All reagents were used directly without further purification. First, a series of Tween 80 pure solutions at concentrations of 10, 20, 30, 40 and 50 mM and SDS pure solutions at concentrations of 40, 60, 80, 100 and 120 mM were prepared in D2O, respectively. These concentrations were set higher than their CMCs. The solubilization experiment was processed as follows: first, 8 equal 800 μL surfactant solutions at a certain surfactant concentration were injected into eight of 1.5 mL centrifuge cuitubes, respectively. One of them without the addition of PAHs was used as the blank control. […] Next, the surfactant solutions with PAHs solubilized were equilibrated on a reciprocating water bath oscillator at 200 rpm at 25 °C for 48 h. After equilibration, the above solutions were centrifuged at 10,000 rpm for 10 min. Finally, each of 600 μL of supernatant was transferred into 5 mm NMR tubes for further detection.
All NMR experiments were performed at 25 °C using a 500 MHz Agilent ProPulse NMR spectrometer (Agilent Technologies, Santa Clara, CA, USA) equipped with a 5 mm XYZ indirect detection probe and z-direction gradient coils with a maximum nominal gradient strength of 60 G cm^−1. The pulse excitation angle of 30 ° and the relaxation delay time of 5 s in ^1H-NMR experiments were chosen to assure the complete recovery of the magnetization and the accurate quantification. The Sodium Trimethylsilylpropionate (TSP) aqueous solution in the capillary was used as an external reference for the frequency and concentration calibration. […] Based on the resonance integral area of PAHs relative to that of TSP, we calculated their actual apparent concentrations. A total of 16 accumulations were used in 2D NOESY experiments, 1 s was chosen as mixing time. […] Due to the high growth rate of rotating frame overhauser effect (ROE) than that of NOE, ROESY experiments for Tween 80 systems were conducted instead of NOESY to avoid the possible spin diffusion effect in NOESY with the long mixing time. The parameters of the 2D ROESY experiments were the same as the NOESY experiments except that the mixing time was 0.2 s. MestReNova software (version 14.0.0, Mestrelab Research, Santiago de Compostella, Spain) was used to process all NMR data.

Data set [2] can be described thus: Solubilization of PAHs in SDS micellar solutions (1H-NMR quantification, MSR). The note with it: for MSR (molar solubilization ratio): SDS 40-120 mM in D2O, 25 °C; for Synergistic/inhibitory level (RΔMSR), in words / solubility increase (RΔMSR) compared to single system: SDS.
Text: as §1, §2, §3
All NMR experiments were performed at 25 °C using a 500 MHz Agilent ProPulse NMR spectrometer (Agilent Technologies, Santa Clara, CA, USA) equipped with a 5 mm XYZ indirect detection probe and z-direction gradient coils with a maximum nominal gradient strength of 60 G cm^−1. The pulse excitation angle of 30 ° and the relaxation delay time of 5 s in ^1H-NMR experiments were chosen to assure the complete recovery of the magnetization and the accurate quantification. The Sodium Trimethylsilylpropionate (TSP) aqueous solution in the capillary was used as an external reference for the frequency and concentration calibration. […] Based on the resonance integral area of PAHs relative to that of TSP, we calculated their actual apparent concentrations. A total of 16 accumulations were used in 2D NOESY experiments, 1 s was chosen as mixing time.

For data set [3] the following is noted: water; cited from earlier work.
Setting [4] is: binary Phe-Ant system vs single.
Where [5] appears, read: binary Phe-Pyr system vs single.
Setting [6] is: ternary Phe-Ant-Pyr system vs single.
The mark [7] stands for this setting: binary Ant-Pyr system vs single.

Values after ≈ are worked out from the molar mass of the structure shown.

As usually defined, the aqueous solubility is how much of the substance goes into solution per volume. Regarding `c1ccc2c(c1)ccc1ccccc12` [Phe, phenanthrene], the “MSR (molar solubilization ratio)” value came to 0.0894 in data set [1] (binary Phe-Ant system); 0.1216 in data set [1] (binary Phe-Pyr system); 0.1170 in data set [1] (single solubilization system); 0.0694 in data set [1] (ternary Phe-Ant-Pyr system); 0.0095 in data set [2] (binary Phe-Ant system); 0.0157 in data set [2] (binary Phe-Pyr system). The “MSR (molar solubilization ratio)” value in data set [2] (single solubilization system) is on record as 0.0089; in data set [2] (ternary Phe-Ant-Pyr system), 0.0166. The “Synergistic/inhibitory level (RΔMSR), in words” value in data set [1] (setting [4]) is “inhibition”; in data set [1] (setting [5]), “synergism”; in data set [1] (setting [6]) it was “inhibition”; in data set [2] (setting [4]), “synergism”; in data set [2] (setting [5]), “synergism”; in data set [2] (setting [6]), “synergism”. For the same compound, the “solubility increase (RΔMSR) compared to single system” value in data set [2] (binary Phe-Pyr system) was determined as 76.4%; in data set [2] (ternary Phe-Ant-Pyr system), 86.5%. Besides, the aqueous solubility in data set [3] is 5.55 µM (≈ 0.989 µg/mL).

For the compound `c1ccc2cc3ccccc3cc2c1` [Ant, anthracene], the “MSR (molar solubilization ratio)” value in data set [1] (binary Ant-Pyr system) is 0.0081; in data set [1] (binary Phe-Ant system), 0.0084; in data set [1] (single solubilization system) it was 0.0094; in data set [1] (ternary Phe-Ant-Pyr system), 0.0080; in data set [2] (binary Ant-Pyr system), 0.0011; in data set [2] (binary Phe-Ant system) it was 0.0011. The “MSR (molar solubilization ratio)” value in data set [2] (single solubilization system) is listed as 0.0011; in data set [2] (ternary Phe-Ant-Pyr system), 0.0013. In addition, the “Synergistic/inhibitory level (RΔMSR), in words” value is reported as “slight inhibition” in data set [1] (setting [7]); “slight inhibition” in data set [1] (setting [4]); “slight inhibition” in data set [1] (setting [6]); “neither Phe nor Pyr contributes to the solubility increase” in data set [2] (setting [7]); “neither Phe nor Pyr contributes to the solubility increase” in data set [2] (setting [4]); “slight synergism” in data set [2] (setting [6]).
